Literature values, collected in patent US20100227801A1, “PHARMACEUTICAL COMPOSITIONS” (Scynexis, Inc., priority 2009, published 2010).

What was measured:
HCV = conditions: phase Ib clinical trial
HCV subgenomic replicon = conditions: subgenomic replicon system
HCV full length replicon = conditions: full length replicon system

| SMILES | activity against HCV infected patients (HCV) | inhibition of HCV-specific RNA replication (HCV subgenomic replicon) | inhibition of HCV-specific RNA replication (HCV full length replicon) |
| --- | --- | --- | --- |
| CC(C)OC(=O)[C@H](C)NP(=O)(OC[C@H]1O[C@@H](n2ccc(=O)[nH]c2=O)[C@](C)(F)[C@@H]1O)Oc1ccccc1 (stereo partly drawn) [PSI-7851] | demonstrated activity |  |  |
| C/C=C/C[C@@H](C)[C@@H](O)[C@H]1C(=O)N[C@@H](CC)C(=O)N(C)[C@H](SCCN(C)C)C(=O)N(C)[C@@H](CC(C)(C)O)C(=O)N[C@@H](C(C)C)C(=O)N(C)[C@@H](CC(C)C)C(=O)N[C@@H](C)C(=O)N[C@H](C)C(=O)N(C)[C@@H](CC(C)C)C(=O)N(C)[C@@H](CC(C)C)C(=O)N(C)[C@@H](C(C)C)C(=O)N1C [SCY-635, 3-[(R)-2-(N,N-dimethylamino)ethylthio-Sar]-4-(gammahydroxymethylleucine)cyclosporine] |  | potent and selective inhibition | potent and selective inhibition |
